Experimental data taken from patent publication US20070191363A1, “Heteroalkyl-substituted biphenyl-4-carboxylic acid arylamide analogues” (Neurogen Corporation, priority 2004, published 2007).

biological target: T1, human capsaicin receptor (Homo sapiens, UniProt Q8NER1); assay: Calcium mobilization assay, determination of antagonist activity; assay type: cell-based; conditions: 50% decrease in the fluorescence response of cells exposed to capsaicin; cells expressing human capsaicin receptor
T1 construct: expressed in transfected cells
T1 sequence (Q8NER1 whole entry): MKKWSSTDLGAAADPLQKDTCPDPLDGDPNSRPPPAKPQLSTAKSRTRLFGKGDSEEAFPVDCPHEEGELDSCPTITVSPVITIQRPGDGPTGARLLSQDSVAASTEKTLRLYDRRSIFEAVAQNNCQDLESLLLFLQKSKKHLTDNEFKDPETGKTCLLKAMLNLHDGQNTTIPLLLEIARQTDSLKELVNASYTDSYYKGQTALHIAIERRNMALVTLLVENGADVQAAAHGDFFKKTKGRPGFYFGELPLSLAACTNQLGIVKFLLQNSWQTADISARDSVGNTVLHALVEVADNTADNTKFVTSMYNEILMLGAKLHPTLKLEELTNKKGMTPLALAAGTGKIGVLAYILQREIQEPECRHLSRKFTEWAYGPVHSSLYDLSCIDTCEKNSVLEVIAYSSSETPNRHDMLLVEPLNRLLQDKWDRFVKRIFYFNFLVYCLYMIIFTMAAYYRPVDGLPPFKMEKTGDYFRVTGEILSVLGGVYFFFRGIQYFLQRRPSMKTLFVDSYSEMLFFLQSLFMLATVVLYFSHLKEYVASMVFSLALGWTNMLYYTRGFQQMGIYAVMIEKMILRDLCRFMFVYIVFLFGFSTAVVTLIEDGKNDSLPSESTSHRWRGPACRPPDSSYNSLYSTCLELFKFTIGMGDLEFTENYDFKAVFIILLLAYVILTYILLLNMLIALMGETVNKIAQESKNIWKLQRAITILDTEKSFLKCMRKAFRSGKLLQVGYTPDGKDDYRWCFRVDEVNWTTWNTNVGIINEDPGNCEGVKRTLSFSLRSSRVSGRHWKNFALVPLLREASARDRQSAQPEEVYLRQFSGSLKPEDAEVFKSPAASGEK
Experimental: A cDNA encoding full length human capsaicin receptor (SEQ ID NO:1, 2 or 3 of U.S. Pat. No. 6,482,611) is subcloned in the plasmid pBK-CMV (Stratagene, La Jolla, Calif.) for recombinant expression in mammalian cells.
Human embryonic kidney (HEK293) cells are transfected with the pBK-CMV expression construct encoding the full length human capsaicin receptor using standard methods. The transfected cells are selected for two weeks in media containing G418 (400 μg/ml) to obtain a pool of stably transfected cells. Independent clones are isolated from this pool by limiting dilution to obtain clonal stable cell lines for use in subsequent experiments.
This Example illustrates a representative calcium mobilization assay for use in monitoring the response of cells expressing capsaicin receptor to capsaicin and other vanilloid ligands of the capsaicin receptor, as well as for evaluating test compounds for agonist and antagonist activity.
(§1) Cells transfected with expression plasmids (as described in Example 3) and thereby expressing human capsaicin receptor are seeded and grown to 70-90% confluency in FALCON black-walled, clear-bottomed 96-well plates (#3904, BECTON-DICKINSON, Franklin Lakes, N.J.). The culture medium is emptied from the 96 well plates and FLUO-3 AM calcium sensitive dye (Molecular Probes, Eugene, Oreg.) is added to each well (dye solution: 1 mg FLUO-3 AM, 440 μL DMSO and 440 μl 20% pluronic acid in DMSO, diluted 1:250 in Krebs-Ringer HEPES (KRH) buffer (25 mM HEPES, 5 mM KCl, 0.96 mM NaH2PO4, 1 mM MgSO4, 2 mM CaCl2, 5 mM glucose, 1 mM probenecid, pH 7.4), 50 μl diluted solution per well). Plates are covered with aluminum foil and incubated at 37° C. for 1-2 hours in an environment containing 5% CO2. After the incubation, the dye is emptied from the plates, and the cells are washed once with KRH buffer, and resuspended in KRH buffer.
To measure the ability of a test compound to agonize or antagonize a calcium mobilization response in cells expressing capsaicin receptors to capsaicin or other vanilloid agonist, the EC50 of the agonist capsaicin is first determined. An additional 20 μl of KRH buffer and 1 μl DMSO is added to each well of cells, prepared as described above. 100 μl capsaicin in KRH buffer is automatically transferred by the FLIPR instrument to each well. Capsaicin-induced calcium mobilization is monitored using either FLUOROSKAN ASCENT (Labsystems; Franklin, Mass.) or FLIPR (fluorometric imaging plate reader system; Molecular Devices, Sunnyvale, Calif.) instruments. Data obtained between 30 and 60 seconds after agonist application are used to generate an 8-point concentration response curve, with final capsaicin concentrations of 1 nM to 3 μM. […] software (Synergy Software, Reading, Pa.) is used to fit the data to the equation: y=a*(1/(1+(b/x)c)) to determine the 50% excitatory concentration (EC50) for the response. In this equation, y is the maximum fluorescence signal, x is the concentration of the agonist or antagonist (in this case, capsaicin), a is the Emax, b corresponds to the EC50 value and c is the Hill coefficient. Determination of Agonist Activity
Test compounds are dissolved in DMSO, diluted in 20 μl KRH buffer so that the final concentration of test compounds in the assay well is between 1 μM and 5 μM, and added to cells prepared as described above. The 96 well plates containing prepared cells and test compounds are incubated in the dark, at room temperature for 0.5 to 6 hours. It is important that the incubation not continue beyond 6 hours. Just prior to determining the fluorescence response, 100 μl capsaicin in KRH buffer at twice the EC50 concentration determined as described above is automatically added by the FLIPR instrument to each well of the 96 well plate for a final sample volume of 200 μl and a final capsaicin concentration equal to the EC50. The final concentration of test compounds in the assay wells is between 1 μM and 5 μM.

| Compound | IC50 [nM] |
| --- | --- |
| CC(C)(C)c1ccc(NC(=O)c2ccc(-c3ncccc3C(F)(F)F)cc2)cc1OCCN1CCOCC1 [Compound 2, N-[4-tert-Butyl-3-(2-morpholin-4-yl-ethoxy)-phenyl]-4-(3-trifluoromethyl-pyridin-2-yl)-benzamide] | ≤ 1000 |
| C[C@@H]1CN(CCOc2cc(NC(=O)c3ccc(-c4ncccc4C(F)(F)F)cc3)ccc2C(C)(C)C)C[C@H](C)O1 [Compound 3, N-{4-tert-Butyl-3-[2-(2,6-dimethyl-morpholin-4-yl)-ethoxy]-phenyl}-4-(3-trifluoromethyl-pyridin-2-yl)-benzamide (cis)] | ≤ 1000 |
| CC1(C)CCCN(CCOc2cc(NC(=O)c3ccc(-c4ncccc4C(F)(F)F)cc3)ccc2C(C)(C)C)C1 [Compound 6, N-{4-tert-Butyl-3-[2-(3,3-dimethyl-piperidin-1-yl)-ethoxy]-phenyl}-4-(3-trifluoromethyl-pyridin-2-yl)-benzamide] | ≤ 1000 |
| CC(C)(C)c1ccc(NC(=O)c2ccc(-c3ncccc3C(F)(F)F)cc2O)cc1OCCO [Compound 7, N-[4-tert-Butyl-3-(2-hydroxy-ethoxy)-phenyl]-2-hydroxy-4-(3-trifluoromethyl-pyridin-2-yl)-benzamide] | ≤ 1000 |
| C[C@@H]1CN(CCOc2cc(NC(=O)c3ccc(-c4ncccc4C(F)(F)F)cc3O)ccc2C(C)(C)C)C[C@H](C)O1 [Compound 8, N-{4-tert-Butyl-3-[2-(2,6-dimethyl-morpholin-4-yl)-ethoxy]-phenyl}-2-hydroxy-4-(3-trifluoromethyl-pyridin-2-yl)-benzamide (cis)] | ≤ 1000 |

Next, values leading:

| IC50 [nM] | Compound |
| --- | --- |
| ≤ 1000 | CC(C)(C)c1ccc(NC(=O)c2ccc(-c3ncccc3C(F)(F)F)cc2)cc1OCCO [Compound 1, N-[4-tert-Butyl-3-(2-hydroxy-ethoxy)-phenyl]-4-(3-trifluoromethyl-pyridin-2-yl)-benzamide] |
| ≤ 1000 | CC(C)(C)c1ccc(NC(=O)c2ccc(-c3ncccc3C(F)(F)F)cc2)cc1OCCN1CCCCC1 [Compound 4, N-[4-tert-Butyl-3-(2-piperidin-1-yl-ethoxy)-phenyl]-4-(3-trifluoromethyl-pyridin-2-yl)-benzamide] |
| ≤ 1000 | COCCN(CCOC)CCOc1cc(NC(=O)c2ccc(-c3ncccc3C(F)(F)F)cc2)ccc1C(C)(C)C [Compound 5, N-(3-{2-[Bis-(2-methoxy-ethyl)-amino]-ethoxy}-4-tert-butyl-phenyl)-4-(3-trifluoromethyl-pyridin-2-yl)-benzamide] |
| ≤ 1000 | CC(C)(C)c1ccc(NC(=O)c2ccc(-c3ncccc3C(F)(F)F)cc2O)cc1OCCN1CCCCC1 [Compound 9, N-[4-tert-Butyl-3-(2-piperidin-1-yl-ethoxy)-phenyl]-2-hydroxy-4-(3-trifluoromethyl-pyridin-2-yl)-benzamide] |

biological target: VR; assay: not given; conditions: binds to VR with no more than moderate affinity; typical value; cited from earlier work

| Compound | Ki [nM] |
| --- | --- |
| Cl.Cl.Cl.Cl.Cl.Cl.N.N.N.N.N.N.N.N.N.N.N.N.N.N.[O-2].[O-2].[Ru+3].[Ru+3].[Ru+4] [ruthenium red] | ≥ 140000 |

biological target: T1, human capsaicin receptor; assay: Calcium mobilization assay, capsaicin agonist response; assay type: cell-based; conditions: capsaicin positive control, calcium mobilization in cells expressing human capsaicin receptor; read-out: approximate EC90 concentration
Experimental: as §1, with “Plates are covered with aluminum foil and incubated at 37° C. for 1-2 hours in an environment containing 5% CO2. After the incubation, the dye is emptied from the plates, and the cells are washed once with KRH buffer, and resuspended in KRH buffer.” left out
To measure the ability of a test compound to agonize or antagonize a calcium mobilization response in cells expressing capsaicin receptors to capsaicin or other vanilloid agonist, the EC50 of the agonist capsaicin is first determined. […] Capsaicin-induced calcium mobilization is monitored using either FLUOROSKAN ASCENT (Labsystems; Franklin, Mass.) or FLIPR (fluorometric imaging plate reader system; Molecular Devices, Sunnyvale, Calif.) instruments. […] In this equation, y is the maximum fluorescence signal, x is the concentration of the agonist or antagonist (in this case, capsaicin), a is the Emax, b corresponds to the EC50 value and c is the Hill coefficient. […]

| Compound | EC90 [nM] |
| --- | --- |
| COc1cc(CNC(=O)CCCC/C=C/C(C)C)ccc1O [capsaicin] | ~100 |
